Tests used:
occludin = assay: Immunofluorescence microscopy of tight junction-related protein occludin in intestinal epithelial wall model (DSS-treated Caco-2); type: cell-based, human; conditions: 3% DSS, 24 hours; Chemical formula 1 0.3, 1 or 3 μM; 5-ASA 500 μM; FIG. 3
Procedure: (§1) Caco-2 cell line (human intestinal epithelial cell line) and RAW 264.7 cell line, which is macrophage cells derived from mouse, were cultured at 37° C., 5% CO2 conditions by using DMEM (Dulbecco's Modified Eagle Medium, #11995065, Gibco) containing 10% FBS (fetal bovine serum, #16000044, Gibco) and 1% streptomycin/penicillin (#15140122, Gibco). For culturing the cells, the medium exchange was carried out every 2 to 3 days, and, once the cells are grown to the level of 80% in cell culture dish (#353003, Falcon), they were maintained by subculture.
(§2) The Caco-2 cells were adjusted to have density of 2×10^5 cells/ml. Suspension of the cells (0.5 ml) was aliquoted in apical side membrane phase of a transwell insert 12-well plate. To the basolateral side phase, 1.5 ml of culture medium were added. While replacing the medium with fresh one, once per 2 or 3 days, culture was continued for 21 days approximately, i.e., till to have cell division and suitable TEER (transepithelial electrical resistance) value of monolayer. […]
(§3) Thereafter, the cells were washed 3 times with 1×PBS for 5 minutes and treated for 5 minutes with Hoechst 33342 for staining the nucleus. […] After the mounting with ProLong™ Gold Antifade reagent, it was examined by confocal fluorescence microscopy.

claudin1 = assay: Immunofluorescence microscopy of tight junction-related protein claudin1 in intestinal epithelial wall model (DSS-treated Caco-2); type: cell-based, human; conditions: 3% DSS, 24 hours; Chemical formula 1 0.3, 1 or 3 μM; 5-ASA 500 μM; FIG. 4
Procedure: as §1, §2, §3

| Compound | expression amount of occludin compared to DSS model group (occludin) | expression amount of claudin1 compared to DSS model group (claudin1) |
| --- | --- | --- |
| Nc1ccc(O)c(C(=O)O)c1 [Compound 5-ASA, 5-aminosalicylic acid, reference compound] | statistically significantly higher | statistically significantly higher |
| COC(=O)C[C@H](OC(=O)/C=C/c1ccc(O)c(O)c1)c1ccc(O)c(O)c1 [Compound 1, 3-[3,4-dihydroxyphenyl]acrylic acid 1-[3,4-dihydroxyphenyl]-2-methoxycarbonylethyl ester] | statistically significantly higher | statistically significantly higher |
